Results on two molecules are retold here after US9447447B2, “Method and apparatus for testing cardiotoxicity and evaluating cardiomyocytes” (National University Corporation Tokyo Medical and Dental …, priority 2010, dated 2016).

Series [1] has as its system human ES cell-derived myocardial clusters.
From the text: They were received in raw and recovered using a glass capillary (Vitrolife), cultured in a medium plus 20% inactivated FBS, 1% non-essential amino acids, 1% penicillin-streptomycin, and 0.2% β-mercaptoethanol in DMEM (all purchased from Invitrogen).
Collected clusters were then placed in a multi-electrode tip (Alfa Med Scientific). The day on which they were placed was set to Day 0. Clusters for which a 1st peak of an extracellular potential (FP) of 200 mV or more was acquired on Day 3 was used for data acquisition. A multi-electrode membrane potential measurement system (Nikkyo Technos Corp.) was used to acquire data.
Pre-agent application data (called ‘Before’) was acquired for 10 minutes before agent application. The agent was dissolved in deionized distilled water (DDW) or DMSO, and diluted in PBS before its application. […] Extracellular potential duration (FPD) and STV (short term variability) of the FPD was calculated from the acquired data.
A steep downward peak of the FP corresponds to the inflow of Na^+. A gradual upward peak corresponds to the outflow of K^+. The FPD was defined as the time between the Na^+ and K^+ peaks. In addition, the STV of the FPD was evaluated as the variation between beats of FPD. STV was calculated by the following equation.
[formula] The increase in the variation between the FPDs can be evaluated as an increase in the value of STV. […]
For series [2] the following is noted: both in vivo and in vitro; cited from earlier work.

Turning to `CC(C)NCC(O)c1ccc(NS(C)(=O)=O)cc1` (racemic) [DL-sotalol], in series [1], the “position in two-dimensional plot (X: FPD score, FPD extended by 10% or more; Y: STV score, STV increased by 100% or more)” value is recorded as “upper right corner”. Besides, the “known effect on APD and STV” value in series [2] is “increase the APD and STV”. `COc1ccc([C@@H]2Sc3ccccc3N(CCN(C)C)C(=O)[C@@H]2OC(C)=O)cc1` [Diltiazem]: the “position in two-dimensional plot (X: FPD score, FPD extended by 10% or more; Y: STV score, STV increased by 100% or more)” value in series [1] was “upper left corner”.
